Assay results published in US11149037B2, “Pyrazole MAGL inhibitors” (H. Lundbeck A/S, priority 2017, dated 2021).

Experiments:
Assay type in all cases: biochemical
MAGL [1] = molecular target: MAGL (Mus musculus (Mouse), UniProt O35678); assay: In vitro competitive activity-based protein profiling, mouse proteomes (brain membrane fraction or cell lysates); conditions: mouse proteome, read-out: MAGL % inh. 1 μM (mouse)
Method in brief: (§1)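 Activity of MAGL and FAAH was quantified from fluorescent gel band intensities. Beforehand, inhibitors at several concentrations competed against subsequent probe labelling (FP-Rh, JW912 or HT-01) in species-matched proteomes, each step 30 min at 37° C.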

FAAH [2] = molecular target: FAAH (Mus musculus (Mouse), UniProt O08914); assay: as above; conditions: mouse proteome, read-out: FAAH % inh. 1 μM (mouse)
Sequence of FAAH (Mus musculus (Mouse), UniProt O08914) (O08914 whole entry): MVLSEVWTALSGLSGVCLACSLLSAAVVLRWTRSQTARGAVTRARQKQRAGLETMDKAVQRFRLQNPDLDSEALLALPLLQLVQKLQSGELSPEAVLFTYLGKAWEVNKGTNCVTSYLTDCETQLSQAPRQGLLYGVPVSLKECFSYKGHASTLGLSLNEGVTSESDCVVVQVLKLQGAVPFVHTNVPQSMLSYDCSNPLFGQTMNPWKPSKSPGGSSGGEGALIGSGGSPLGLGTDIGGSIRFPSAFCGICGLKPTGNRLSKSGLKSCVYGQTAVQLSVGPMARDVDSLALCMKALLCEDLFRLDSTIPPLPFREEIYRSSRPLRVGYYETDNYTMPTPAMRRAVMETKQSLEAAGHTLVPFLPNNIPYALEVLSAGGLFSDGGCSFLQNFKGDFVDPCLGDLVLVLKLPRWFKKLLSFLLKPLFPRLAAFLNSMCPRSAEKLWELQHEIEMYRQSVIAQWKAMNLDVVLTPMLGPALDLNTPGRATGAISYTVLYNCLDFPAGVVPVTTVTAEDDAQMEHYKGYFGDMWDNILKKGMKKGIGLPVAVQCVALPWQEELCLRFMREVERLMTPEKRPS
Method in brief: as §1

MAGL [3] = molecular target: MAGL (Homo sapiens (Human), UniProt Q99685); assay: In vitro competitive activity-based protein profiling, human proteomes (prefrontal cortex or PC3 cell membrane fractions); conditions: human proteome; for inhibition at 1 µM: read-out: MAGL % inh. 1 μM (human); for inhibition at 10 µM: read-out: MAGL % inh. (human) @ 10 μM
Sequence of MAGL (Homo sapiens (Human), UniProt Q99685) (Q99685 whole entry): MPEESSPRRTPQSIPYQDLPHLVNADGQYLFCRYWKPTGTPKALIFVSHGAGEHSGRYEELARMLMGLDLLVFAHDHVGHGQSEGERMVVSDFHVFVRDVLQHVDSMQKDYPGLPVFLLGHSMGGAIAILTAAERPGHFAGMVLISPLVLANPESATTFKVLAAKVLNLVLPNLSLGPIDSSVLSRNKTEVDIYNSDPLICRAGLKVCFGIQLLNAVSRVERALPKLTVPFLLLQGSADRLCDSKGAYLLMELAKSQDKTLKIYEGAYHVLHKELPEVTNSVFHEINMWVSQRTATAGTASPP
Method in brief: as §1

FAAH [4] = molecular target: FAAH (Homo sapiens (Human), UniProt O00519); assay: as above; conditions: human proteome; for inhibition at 1 µM: read-out: FAAH % inh. 1 μM (human)
Sequence of FAAH (Homo sapiens (Human), UniProt O00519) (O00519 whole entry): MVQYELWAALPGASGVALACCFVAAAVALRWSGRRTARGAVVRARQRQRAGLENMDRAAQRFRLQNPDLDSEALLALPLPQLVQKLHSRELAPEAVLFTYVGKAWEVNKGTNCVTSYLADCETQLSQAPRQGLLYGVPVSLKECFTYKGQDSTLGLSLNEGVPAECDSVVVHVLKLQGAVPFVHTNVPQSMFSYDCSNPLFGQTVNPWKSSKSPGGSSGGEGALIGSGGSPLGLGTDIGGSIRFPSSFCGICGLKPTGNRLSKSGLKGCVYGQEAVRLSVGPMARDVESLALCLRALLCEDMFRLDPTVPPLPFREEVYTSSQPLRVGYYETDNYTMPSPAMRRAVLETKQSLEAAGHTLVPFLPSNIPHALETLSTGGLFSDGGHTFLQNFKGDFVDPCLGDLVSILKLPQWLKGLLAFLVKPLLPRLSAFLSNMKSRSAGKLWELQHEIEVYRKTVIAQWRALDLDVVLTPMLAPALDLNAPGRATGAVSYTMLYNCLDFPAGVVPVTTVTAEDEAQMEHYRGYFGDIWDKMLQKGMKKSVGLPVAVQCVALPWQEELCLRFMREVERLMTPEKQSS
Method in brief: as §1

Sequence of MAGL (Mus musculus (Mouse), UniProt O35678) (O35678 whole entry): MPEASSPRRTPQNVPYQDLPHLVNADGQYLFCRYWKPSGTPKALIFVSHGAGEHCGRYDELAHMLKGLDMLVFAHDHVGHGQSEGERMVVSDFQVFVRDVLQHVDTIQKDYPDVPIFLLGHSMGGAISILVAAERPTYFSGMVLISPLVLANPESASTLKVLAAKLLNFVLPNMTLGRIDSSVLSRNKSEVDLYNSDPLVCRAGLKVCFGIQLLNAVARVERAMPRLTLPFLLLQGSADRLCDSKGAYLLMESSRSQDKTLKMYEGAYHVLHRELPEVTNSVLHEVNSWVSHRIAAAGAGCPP

Row | inhibition at 1 µM (MAGL [1]) [%] | inhibition at 1 µM (FAAH [2]) [%] | inhibition at 1 µM (MAGL [3]) [%] | IC50 (MAGL [3]) [µM] | inhibition at 1 µM (FAAH [4]) [%] | IC50 (FAAH [4]) [µM] | inhibition at 10 µM (MAGL [3]) [%] | SMILES
1 | > 75 | 0 to 25 | > 75 | < 0.1 | 0 to 25 | 1 to 10 |  | CS(=O)(=O)Nc1ccn(C(=O)N2CCN(Cc3cc4ccc(C(F)(F)F)cc4s3)CC2)n1 [Example 52, N-(1-(4-((6-(Trifluoromethyl)benzo[b]thiophen-2-yl)methyl)piperazine-1-carbonyl)-1H-pyrazol-3-yl)methanesulfonamide]
2 | > 75 | 0 to 25 | > 75 |  | 0 to 25 |  |  | CS(=O)(=O)Nc1ccn(C(=O)N2CCN(Cc3nc4ccccc4s3)CC2)n1 [Example 56, N-(1-(4-(Benzo[d]thiazol-2-ylmethyl)piperazine-1-carbonyl)-1H-pyrazol-3-yl)methanesulfonamide]
3 | > 75 | 0 to 25 | > 75 |  | 0 to 25 |  |  | CS(=O)(=O)Nc1ccn(C(=O)N2CCC(Oc3ccc(C(F)(F)F)cc3NCC(=O)O)CC2)n1 [Example 99, (2-((1-(3-(Methylsulfonamido)-1H-pyrazole-1-carbonyl)piperidin-4-yl)oxy)-5-(trifluoromethyl)phenyl)glycine]
4 | > 75 | 0 to 25 | > 75 |  | 0 to 25 |  |  | Cc1c(CN2CCN(C(=O)n3ccc(NS(C)(=O)=O)n3)CC2)[nH]c2c(Cl)cccc12 [Example 65, N-(1-(4-((7-Chloro-3-methyl-1H-indol-2-yl)methyl)piperazine-1-carbonyl)-1H-pyrazol-3-yl)methanesulfonamide]
5 | 0 to 25 | 0 to 25 |  |  | 0 to 25 |  | 0 to 25 | CS(=O)(=O)Nc1ccn(C(=O)N2CC3CN(Cc4cc(Cl)ccc4C(F)(F)F)CC3C2)n1 (centres unmarked) [Example 45, N-(1-(5-(5-Chloro-2-(trifluoromethyl)benzyl)octahydropyrrolo[3,4-c]pyrrole-2-carbonyl)-1H-pyrazol-3-yl)methanesulfonamide]
6 | > 75 | > 75 | > 75 | < 0.1 | > 75 | 0.1 to 1 |  | CC(=O)Nc1ccn(C(=O)N2CCC3(CCN(Cc4ccc(N5CCCC5)cc4C(F)(F)F)C3)CC2)n1 [Example 23, N-(1-(2-(4-(pyrrolidin-1-yl)-2-(trifluoromethyl)benzyl)-2,8-diazaspiro[4.5]decane-8-carbonyl)-1H-pyrazol-3-yl)acetamide]
7 | > 75 | 0 to 25 | > 75 |  | 0 to 25 |  |  | CS(=O)(=O)Nc1ccn(C(=O)N2CCN(Cc3ccc(C(F)(F)F)cc3S(=O)(=O)C3CC3)CC2)n1 [Example 89, N-(1-(4-(2-(Cyclopropylsulfonyl)-4-(trifluoromethyl)benzyl)piperazine-1-carbonyl)-1H-pyrazol-3-yl)methanesulfonamide]
8 | 0 to 25 | 0 to 25 | 50 to 75 |  | 0 to 25 |  |  | CN(Cc1ccc(C(F)(F)F)cc1NCC(=O)O)C1(C)CCN(C(=O)n2ccc(NS(C)(=O)=O)n2)CC1 [Example 102, (2-((Methyl(4-methyl-1-(3-(methylsulfonamido)-1H-pyrazole-1-carbonyl)piperidin-4-yl)amino)methyl)-5-(trifluoromethyl)phenyl)glycine]
9 | 50 to 75 | 0 to 25 | > 75 |  | 0 to 25 |  |  | CS(=O)(=O)Nc1ccn(C(=O)N2CCN(Cc3ccncc3N3CCCC3)CC2)n1 [Example 82, N-(1-(4-((3-(Pyrrolidin-1-yl)pyridin-4-yl)methyl)piperazine-1-carbonyl)-1H-pyrazol-3-yl)methanesulfonamide]
10 | > 75 | 0 to 25 | > 75 | < 0.1 | 0 to 25 | 1 to 10 |  | CC(=O)Nc1ccn(C(=O)N2CCC3(CCCN3Cc3cc4cc(Cl)c(Cl)cc4[nH]3)CC2)n1 [Example 43, N-(1-(1-((5,6-Dichloro-1H-indol-2-yl)methyl)-1,8-diazaspiro[4.5]decane-8-carbonyl)-1H-pyrazol-3-yl)acetamide]
11 | > 75 | 0 to 25 | > 75 |  | 0 to 25 |  |  | CS(=O)(=O)Nc1ccn(C(=O)N2CCC3(CCN(Cc4ccc(C(F)(F)F)cc4N4CCOCC4)C3)CC2)n1 [Example 62, N-(1-(2-(2-Morpholino-4-(trifluoromethyl)benzyl)-2,8-diazaspiro[4.5]decane-8-carbonyl)-1H-pyrazol-3-yl)methanesulfonamide]
12 | > 75 | 0 to 25 | > 75 |  | 0 to 25 |  |  | C[C@H]1CCCN1c1cc(CN2CCN(C(=O)n3ccc(NS(C)(=O)=O)n3)CC2)ccc1C(F)(F)F [Example 151, (S)-N-(1-(4-(3-(2-Methylpyrrolidin-1-yl)-4-(trifluoromethyl)benzyl)piperazine-1-carbonyl)-1H-pyrazol-3-yl)methanesulfonamide]
13 | 0 to 25 | 0 to 25 |  |  | 0 to 25 |  | 25 to 50 | CS(=O)(=O)Nc1ccn(C(=O)N2CCC3(CCN(Cc4cc(Cl)ccc4C(F)(F)F)C3)CC2)n1 [Example 46, N-(1-(2-(5-Chloro-2-(trifluoromethyl)benzyl)-2,8-diazaspiro[4.5]decane-8-carbonyl)-1H-pyrazol-3-yl)methanesulfonamide]
14 | 50 to 75 | 0 to 25 | 25 to 50 |  | 0 to 25 |  |  | Cc1nc(Cl)ccc1CN1CCN(C(=O)n2ccc(NS(C)(=O)=O)n2)CC1 [Example 61, N-(1-(4-((6-Chloro-2-methylpyridin-3-yl)methyl)piperazine-1-carbonyl)-1H-pyrazol-3-yl)methanesulfonamide]
15 | > 75 | > 75 | > 75 | < 0.1 | > 75 | 0.1 to 1 |  | CC(=O)Nc1ccn(C(=O)N2CC3CN(Cc4cccc(Oc5ccccc5Cl)c4)CC3C2)n1 (centres unmarked) [Example 18, N-(1-(5-(3-(2-chlorophenoxy)benzyl)octahydropyrrolo[3,4-c]pyrrole-2-carbonyl)-1H-pyrazol-3-yl)acetamide]
16 | > 75 | 0 to 25 | > 75 |  | 0 to 25 |  |  | CC(=O)Nc1ccn(C(=O)N2CCN(Cc3cc(Cl)cc(Cl)c3)CC2)n1 [Example 144, N-(1-(4-(3,5-Dichlorobenzyl)piperazine-1-carbonyl)-1H-pyrazol-3-yl)acetamide]
17 | 0 to 25 | 0 to 25 | 50 to 75 |  | 0 to 25 |  |  | CS(=O)(=O)Nc1ccn(C(=O)N2CCN(Cc3ccc(C(F)(F)F)cc3NCCC(=O)O)CC2)n1 [Example 77, 3-((2-((4-(3-(Methylsulfonamido)-1H-pyrazole-1-carbonyl)piperazin-1-yl)methyl)-5-(trifluoromethyl)phenyl)amino)propanoic acid]
18 | > 75 | 0 to 25 | > 75 |  | 0 to 25 |  |  | CC(=O)Nc1ccn(C(=O)N2CCC3(CCCN3C(=O)c3ccc(Cl)c(C)c3)CC2)n1 [Example 84, N-(1-(1-(4-Chloro-3-methylbenzoyl)-1,8-diazaspiro[4.5]decane-8-carbonyl)-1H-pyrazol-3-yl)acetamide]
